Data published in patent US10328075B2, “Method of treatment and compounds for use therein” (Baker Heart and Diabetes Institute, priority 2015, dated 2019).
Where two headings read alike, the source gives them in different places.

Biological target: T1, hFPR1 (Homo sapiens, UniProt P21462)
T1 construct: expressed in transfected cells
T1 sequence (P21462 1-350): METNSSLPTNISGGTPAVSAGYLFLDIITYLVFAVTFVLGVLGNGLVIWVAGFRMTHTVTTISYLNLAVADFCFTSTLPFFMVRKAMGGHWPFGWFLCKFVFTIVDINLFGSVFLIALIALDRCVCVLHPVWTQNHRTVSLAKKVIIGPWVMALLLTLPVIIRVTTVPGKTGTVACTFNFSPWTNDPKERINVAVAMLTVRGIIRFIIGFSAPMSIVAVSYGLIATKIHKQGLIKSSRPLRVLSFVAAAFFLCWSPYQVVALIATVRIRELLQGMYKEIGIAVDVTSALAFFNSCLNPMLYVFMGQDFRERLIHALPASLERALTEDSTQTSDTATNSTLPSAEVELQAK
Assay: [Ca2+]i mobilization in FlpIn-CHO cells stably expressing hFPR1
Format: cell-based
Parameters: Calcium Rmax: unit not given here
Settings: for Emax: Flp-In-CHO
Excerpt: cDNDA construct and generation of stable cell lines: cDNA in pcDNA3.1^+ encoding the human formyl peptide receptors (FPR) subtypes, hFPR1, hFPR2 and hFPR3 was obtained from Invitrogen. The sequences for 3 hFPR receptors were amplified by PCR and cloned into the Gateway entry vector, pDONR202™, using the BP clonase enzyme mix, according to the manufactures' instructions (Invitrogen Inc, Carlsbad, Calif., USA). All hFPR receptors constructs in pDONR201™ were subsequently transfected into the pEF5/FRT/V5/dest vector using the LR clonase enzyme mix (Invitrogen). Receptor constructs (pEF5/FRT/V5/dest) were used to transfect FIp-In CHO cells as described previously (Valant C et al., PNAS, 2014). Cells were selected using 500 μg/mL hydromycin to generate cell lines stably expressing each receptor construct. Cells were maintained and cultured in high glucose DMEM supplemented with 10% FBS, 16 mM HEPES and 500 μg/mL hydromycin at 37° C. under a humidified atmosphere containing 5% CO2.
In the various assays described below, cells were plated into 96-well transparent cell culture plates at 4×10^4 cells per well, cultured overnight in serum-free media at 37° C. in 5% CO2.
Intracellular calcium mobilization: Intracellular calcium mobilization was assayed as described previously (Keov, P et al., 2014). Briefly, cells were washed once using HEPES buffered saline (HBS) solution [150 mM NaCl, 2.2 mM CaCl2, 2.6 mM KCl, 1.2 mM MgCl2, 10 mM HEPEs, 10 mM D-Glucose, 0.5% (w/v) bovine serum albumin (BSA) and 4 mM probenecid] at pH 7.4, then treated with Fluo-4-AM (1 μM, in HBS/BSA/probenecid) for 60 min at 37° C. in 5% CO2 in the dark. Cells were then further washed and placed in HBS/BSA/probenecid solution for ligation addition and assay using the FLEXstation 3 plate reader (Molecular Devices, Sunnyvale, Calif.). For all experiments, peak change in fluorescence signal was normalized to the cellular response to 100 μM ATP, which was used as an internal positive control.
Data analysis: All data were analysed using GraphPad Prism 6.0 (GraphPad Software, San Deigo, Calif., USA). Where appropriate, concentration-response curves were fitted to derive the maximal agonist effect (Emax), and the ligand potency estimate (pEC50), where Emax is the maximal possible response of the system (not the agonist), basal is the basal level of response in the absence of agonist, and pEC50 is the negative logarithm of the agonist concentration that gives a response halfway between Emax and basal.
In the present study, FIp-IN CHO cells and Gateway plasmid were obtained from Invitrogen Inc (Carlsbad, Calif., USA). The sequences for all 3 known human FPRs (hFPR1, hFPR2 and hFPR3) were amplified by PCR and cloned into the Gateway entry vector, pDONR202TM, using the BP clonase enzyme mix, according to the manufacturers' instructions. The hFPR pDONR201TM constructs were subsequently transfected into the pEF5/FRT/V5/dest vector using the LR clonase enzyme mix (Invitrogen). Receptor constructs (pEF5/FRT/V5/dest) were used to transfect FIp-IN CHO cells, as described previously (Valant et al. 2014). Cells were selected using 500 μg/mL hydromycin to generate cell lines stably expressing each human receptor construct. Cells were maintained and cultured in high glucose Dulbecco's modified eagle medium (DMEM) supplemented with 10% fetal bovine serum (FBS, from JRH Biosciences, Lenexa, Kans., USA) and 500 μg/mL hydromycin B (Invitrogen Inc) at 37° C. under a humidified atmosphere containing 5% CO2. Cell were plated into 96-well transparent cell culture plates at 4×10^4 cells per well, cultured overnight in serum-free media at 37° C. in 5% CO2.
(ii) Intracellular Ca2+ mobilization: Intracellular Ca2+ mobilization was determined in stably-transfected recombinant hFPR CHO cells, as described previously (Valant et al. 2014).

[1] = Table 9, read-out: potency (pEC50) Ca^2+i, hFPR1-FlpInCHO cells in vitro (converted)

Compound	Emax (Table 1, percentage of [Ca^2+]i mobilization elicited by ATP, read-out: Emax (%), [Ca^2+]i mobilization, hFPR1-Flpln-CHO) [%]	Emax (Table 8, percent of response elicited by ATP, read-out: Emax, [Ca^2+]i mobilization, hFPR1-Flpln-CHO) [%]	EC50 (Table 1, read-out: pEC50, [Ca^2+]i mobilization, hFPR1-Flpln-CHO (converted)) [nM]	ΔLog(τ/KA), [Ca^2+]i mobilization, hFPR1-Flpln-CHO (Table 8, normalized transduction coefficient, reference agonist Cmpd43)	EC50 (Table 8, read-out: pEC50, [Ca^2+]i mobilization, hFPR1-Flpln-CHO (converted)) [nM]	Log(τ/KA), [Ca^2+]i mobilization, hFPR1-Flpln-CHO (Table 8, transduction coefficient)	EC50 [1] [nM]	Calcium Rmax (Table 10, receptor not given, ND = Not detectable)	EC50 (Table 10, receptor not given, ND = Not detectable, read-out: Calcium pEC50 (converted)) [nM]
CC(C)C1C(NC(=O)Nc2ccc(Cl)cc2)C(=O)N(c2ccccc2)N1C (stereo not shown) [BIDI-002]	43 ± 6	43 ± 6	11	0.0	10	8.0 ± 0.2	11		
Cc1cc(Cc2cccnc2)c(=O)n(CC(=O)Nc2ccc(Cl)cc2)n1 [MIPS-0010396]							33100	22 ± 2	33100
